From patent US11279712B2, “Macrocyclic compounds that inhibit MCL-1 protein” (AMGEN INC., priority 2017, dated 2022)
Like-named read-outs stand apart in the source and are kept apart here.

Tests used:
[1] = molecular target: Mcl-1/Bim interaction (recombinant human Mcl-1 residues 171-327) (Homo sapiens (Human), UniProt Q07820); assay: Cell Free Mcl-1:Bim Affinity Assay (Mcl-1 HTRF); format: binding; settings: TR-FRET, 0.1 nM Mcl-1(171-327), 0.05 nM biotin-Bim(51-76)
Protocol: Cell Free Mcl-1:Bim Affinity Assay (Mcl-1 HTRF)
The inhibition of the Mcl-1/Bim interaction was measured using a time-resolved fluorescence resonance energy transfer (TR-FRET) assay. The recombinant human Mcl-1 (C-terminally 6×His tagged Mcl-1 containing residues 171-327) was generated at Amgen Inc (Thousand Oaks, Calif.). A biotinylated peptide derived from human Bim (residues 51-76) was purchased from CPC Scientific (San Jose, Calif.). The TR-FRET assay was conducted in a 384-well white OptiPlate™ (PerkinElmer, Waltham, Mass.) in a total volume of 40 μL. The reaction mixture contained 0.1 nM Mcl-1(171-327), 0.05 nM biotin-Bim(51-76), 0.05 nM LANCES Eu-W1024 Anti-6×His (PerkinElmer), 0.072 nM Streptavidin-Xlent (Cisbio, Bedford, Mass.), and serially diluted test compounds in the binding buffer of 20 mM Hepes, pH 7.5, 150 mM NaCl, 0.016 mM Brij®35, and 1 mM dithiothreitol. Test compounds were pre-incubated with Mcl-1(171-327) and biotin-Bim (51-76) for 60 min before addition of the detection mixture (LANCE® Eu-W1024 Anti-6×His and Streptavidin-Xlent). The reaction plates were further incubated overnight and then were read on an Envision® multimode reader (PerkinElmer). Fluorescence signals were measured at 620 nm (40-nm bandwidth) and 665 nm (7.5-nm bandwidth) with a 60 μs delay after excitation at 320 nm (75-nm bandwidth). The signal ratio at 665/620 nm corresponded to the Mcl-1/Bim interaction and was used in all data analyses. The IC50 values of test compounds were determined from duplicate data by analyzing competition curves using a four-parameter sigmoidal model in GraphPad Prism (GraphPad Software, San Diego, Calif.) or in Genedata Screener® (Genedata, Basel, Switzerland).

[2] = system: OPM-2 human multiple myeloma cell line; assay: Cell Viability Assay (OPM-2 10 FBS); format: cell-based; settings: OPM-2 cells, CellTiter-Glo, read-out: OPM-2 10% FBS IC50 IP
Protocol: Cell Viability Assay (OPM-2 10 FBS)
The human multiple myeloma cell line, OPM-2, was cultured in complete growth medium containing RPMI 1640 and 10% fetal bovine serum (FBS). Cells were seeded into 384-well plates at 3000 cells/well density in complete growth medium containing 10% FBS, and incubated for 16 h with serially diluted test compounds in a 37° C. incubator with 5% CO2. Cell viability was tested using CellTiter-Glo® assay (Promega, Madison, Wis.) according to the manufacturer recommendations. Luminescence was determined using an EnVision® Multilabel plate reader 25 min after the addition of detection reagent. IC50 values were then calculated with Xlfit using a logistical 4-parameter fit model in GraphPad Prism (GraphPad Software, San Diego, Calif.) or in Genedata Screener® (Genedata, Basel, Switzerland).

Mcl-1/Bim interaction (recombinant human Mcl-1 residues 171-327), sequence (Q07820 171-327): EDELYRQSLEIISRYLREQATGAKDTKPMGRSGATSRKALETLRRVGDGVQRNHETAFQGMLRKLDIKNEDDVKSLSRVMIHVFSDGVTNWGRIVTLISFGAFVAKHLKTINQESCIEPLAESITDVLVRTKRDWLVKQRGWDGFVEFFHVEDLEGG

Compound	IC50 [1]	IC50 ([2]; 16 h)	IC50 ([2]; Homo sapiens, OPM-2, 16 h)
C[C@@H]1[C@@H](C)CCC[C@H](CN2CCOCC2)[C@@H]2CC[C@H]2CN2C[C@@]3(CCCc4cc(Cl)ccc43)COc3ccc(cc32)C(=O)NS1(=O)=O (single isomer, unassigned) [Example 46]	0.743 nM	724 nM	
C[C@H]([C@H]1CCC[C@H](C)[C@@H](C)S(=O)(=O)NC(=O)c2ccc3c(c2)N(C[C@@H]2CC[C@H]21)C[C@@]1(CCCc2cc(Cl)ccc21)CO3)N1CCOCC1 (single isomer, unassigned) [Example 72]	0.849 nM	1990 nM	
CC[C@@H](O)[C@H]1/C=C/C[C@H](C)[C@@H](C)S(=O)(=O)NC(=O)c2ccc3c(c2)N(C[C@@H]2CC[C@H]21)C[C@@]1(CCCc2cc(Cl)ccc21)CO3 (single isomer, unassigned) [Example 54]	0.624 nM	989 nM	
C[C@H]([C@H]1CCC[C@H](C)[C@@H](C)S(=O)(=O)NC(=O)c2ccc3c(c2)N(C[C@@H]2CC[C@H]21)C[C@@]1(CCCc2cc(Cl)ccc21)CO3)N1CCOCC1 (single isomer, unassigned) [Example 79]	1.59 nM	3000 nM	
CC[C@@H](O)[C@@H]1/C=C/C[C@H](C)[C@@H](C)S(=O)(=O)NC(=O)c2ccc3c(c2)N(C[C@@H]2CC[C@H]21)C[C@@]1(CCCc2cc(Cl)ccc21)CO3 (single isomer, unassigned) [Example 75]	0.808 nM	2440 nM	
C[C@@H]1[C@@H](C)CCC[C@H](CN2CCN3CCNC[C@@H]3C2)[C@@H]2CC[C@H]2CN2C[C@@]3(CCCc4cc(Cl)ccc43)COc3ccc(cc32)C(=O)NS1(=O)=O (stereo in doubt) [Example 81]	0.831 nM		3560 nM
C[C@@H]1[C@@H](C)CCC[C@H](CN2CCN3CCN(C)C[C@@H]3C2)[C@@H]2CC[C@H]2CN2C[C@@]3(CCCc4cc(Cl)ccc43)COc3ccc(cc32)C(=O)NS1(=O)=O (single isomer, unassigned) [Example 1]	0.225 nM	117 nM	
C[C@@H]1[C@@H](C)CCC[C@H]([C@H](O)C2CCN(C)CC2)[C@@H]2CC[C@H]2CN2C[C@@]3(CCCc4cc(Cl)ccc43)COc3ccc(cc32)C(=O)NS1(=O)=O (single isomer, unassigned) [Example 83]	0.552 nM	4230 nM	
C[C@@H]1[C@@H](C)CCC[C@H](C(=O)O)[C@@H]2CC[C@H]2CN2C[C@@]3(CCCc4cc(Cl)ccc43)COc3ccc(cc32)C(=O)NS1(=O)=O (single isomer, unassigned) [Example 77]	0.442 nM	20700 nM	
C[C@@H]1[C@@H](C)CCC[C@H](CN2CC(N(C)C)C2)[C@@H]2CC[C@H]2CN2C[C@@]3(CCCc4cc(Cl)ccc43)COc3ccc(cc32)C(=O)NS1(=O)=O (single isomer, unassigned) [Example 13]	0.77 nM		258 nM
C[C@@H]1[C@@H](C)CCC[C@H](C)[C@@H]2CC[C@H]2CN2C[C@@]3(CCCc4cc(Cl)ccc43)COc3ccc(cc32)C(=O)NS1(=O)=O (single isomer, unassigned) [Example 73]	7.41 nM	17000 nM	
C[C@@H]1[C@@H](C)CCC[C@H](CN2CCN3CCN(C)C[C@@H]3C2)[C@@H]2CC[C@H]2CN2C[C@@]3(CCCc4cc(Cl)ccc43)COc3ccc(cc32)C(=O)NS1(=O)=O (single isomer, unassigned) [Example 56]	0.52 nM	1030 nM	
COCCNC(=O)[C@@H]1CCC[C@H](C)[C@@H](C)S(=O)(=O)NC(=O)c2ccc3c(c2)N(C[C@@H]2CC[C@H]21)C[C@@]1(CCCc2cc(Cl)ccc21)CO3 (single isomer, unassigned) [Example 57]	0.604 nM		1170 nM
C[C@@H]1[C@@H](C)CCC[C@H](CN2CCN3CCN(S(C)(=O)=O)C[C@@H]3C2)[C@@H]2CC[C@H]2CN2C[C@@]3(CCCc4cc(Cl)ccc43)COc3ccc(cc32)C(=O)NS1(=O)=O (stereo in doubt) [Example 20]	1.16 nM		304 nM
C[C@@H]1[C@@H](C)CCC[C@@H]([C@@H](O)C(F)(F)F)[C@@H]2CC[C@H]2CN2C[C@@]3(CCCc4cc(Cl)ccc43)COc3ccc(cc32)C(=O)NS1(=O)=O (single isomer, unassigned) [Example 87]	13.3 nM	9890 nM	
C[C@@H]1[C@@H](C)CCC[C@H](C=O)[C@@H]2CC[C@H]2CN2C[C@@]3(CCCc4cc(Cl)ccc43)COc3ccc(cc32)C(=O)NS1(=O)=O [Example 60]	0.552 nM	1330 nM	
C[C@@H]1[C@@H](C)CCC[C@H](CN2CCN(C)CC2)[C@@H]2CC[C@H]2CN2C[C@@]3(CCCc4cc(Cl)ccc43)COc3ccc(cc32)C(=O)NS1(=O)=O (single isomer, unassigned) [Example 34]	0.602 nM	417 nM	

Other lines, results leading:

IC50 [1]	IC50 ([2]; 16 h)	IC50 ([2]; Homo sapiens, OPM-2, 16 h)	Compound
0.375 nM		305 nM	CC(=O)N1CCN(C[C@H]2CCC[C@H](C)[C@@H](C)S(=O)(=O)NC(=O)c3ccc4c(c3)N(C[C@@H]3CC[C@@H]23)C[C@@]2(CCCc3cc(Cl)ccc32)CO4)CC1 (single isomer, unassigned) [Example 22]
0.185 nM	277 nM		CC(=O)N1CCN2CCN(C[C@H]3CCC[C@H](C)[C@@H](C)S(=O)(=O)NC(=O)c4ccc5c(c4)N(C[C@@H]4CC[C@@H]34)C[C@@]3(CCCc4cc(Cl)ccc43)CO5)C[C@H]2C1 (single isomer, unassigned) [Example 15]
0.126 nM	221 nM		C[C@@H]1[C@@H](C)CCC[C@@H](C(=O)N2CCOCC2)[C@@H]2CC[C@H]2CN2C[C@@]3(CCCc4cc(Cl)ccc43)COc3ccc(cc32)C(=O)NS1(=O)=O (single isomer, unassigned) [Example 8]
0.265 nM		443 nM	COCCN1CCN(C[C@H]2CCC[C@H](C)[C@@H](C)S(=O)(=O)NC(=O)c3ccc4c(c3)N(C[C@@H]3CC[C@@H]23)C[C@@]2(CCCc3cc(Cl)ccc32)CO4)CCC1=O (stereo in doubt) [Example 36]
0.281 nM	1410 nM		CC[C@H](O)[C@H]1/C=C/C[C@H](C)[C@@H](C)S(=O)(=O)NC(=O)c2ccc3c(c2)N(C[C@@H]2CC[C@H]21)C[C@@]1(CCCc2cc(Cl)ccc21)CO3 (single isomer, unassigned) [Example 61]
0.226 nM	366 nM		COCC[C@@H]1[C@@H](C)CCC[C@H](CO)[C@@H]2CC[C@H]2CN2C[C@@]3(CCCc4cc(Cl)ccc43)COc3ccc(cc32)C(=O)NS1(=O)=O (single isomer, unassigned) [Example 29]
0.212 nM	172 nM		CC(=O)N1CCN2CCN(C[C@H]3CCC[C@H](C)[C@@H](C)S(=O)(=O)NC(=O)c4ccc5c(c4)N(C[C@@H]4CC[C@@H]34)C[C@@]3(CCCc4cc(Cl)ccc43)CO5)C[C@H]2C1 (single isomer, unassigned) [Example 4]
0.288 nM		451 nM	C[C@@H]1[C@@H](C)C/C=C/[C@H](CN2CCN3CCOC[C@@H]3C2)[C@@H]2CC[C@H]2CN2C[C@@]3(CCCc4cc(Cl)ccc43)COc3ccc(cc32)C(=O)NS1(=O)=O (single isomer, unassigned) [Example 37]
0.224 nM	322 nM		C[C@@H]1[C@@H](C)C/C=C/[C@H](CO)[C@@H]2CC[C@H]2CN2C[C@@]3(CCCc4cc(Cl)ccc43)COc3ccc(cc32)C(=O)NS1(=O)=O (single isomer, unassigned) [Example 24]
0.222 nM	936 nM		C[C@H]1CCC[C@H](CO)[C@@H]2CC[C@H]2CN2C[C@@]3(CCCc4cc(Cl)ccc43)COc3ccc(cc32)C(=O)NS(=O)(=O)C1 (single isomer, unassigned) [Example 51]
0.291 nM		227 nM	C[C@@H]1[C@@H](C)CCC[C@H](CN2CCN3CCOC[C@@H]3C2)[C@@H]2CC[C@H]2CN2C[C@@]3(CCCc4cc(Cl)ccc43)COc3ccc(cc32)C(=O)NS1(=O)=O (single isomer, unassigned) [Example 10]
0.359 nM	1950 nM		CC[C@@H]1CCCC[C@H](CO)[C@@H]2CC[C@H]2CN2C[C@@]3(CCCc4cc(Cl)ccc43)COc3ccc(cc32)C(=O)NS1(=O)=O (single isomer, unassigned) [Example 71]
